Laboratory results reported in patent US4250170A, “Antibacterial agents Bu-2349A and B and method of using same” (Bristol-Myers Company, priority 1979, dated 1981).
≈ marks a conversion by molar mass, not a printed value.

Legend:
[1] = system: Neisseria gonorrhoeae (Ng-1); assay: MIC, two-fold agar dilution; assay type: cell-based; conditions: 18 h, Table 3, GC agar, 10^-2 dilution
[2] = system: Veillonella parvula ATCC 17745 (Vp-1); assay: MIC against anaerobic bacteria; assay type: cell-based; conditions: ATCC17745, 18 h, Table 4, GAM Medium, pH 7
[3] = system: Escherichia coli (Ec-72), ANT(2"); assay: MIC, two-fold agar dilution; assay type: cell-based; conditions: 18 h, Table 3, Mueller-Hinton agar, 10^-4 dilution, enzyme ANT(2")
[4] = system: Enterobacter cloacae (El-35), AAC(3)-3; assay: MIC, two-fold agar dilution; assay type: cell-based; conditions: 18 h, Table 3, Mueller-Hinton agar, 10^-4 dilution, enzyme AAC(3)-3
[5] = system: Acidoaminococcus fermentans ATCC 25085 (Ae-1); assay: MIC against anaerobic bacteria; assay type: cell-based; conditions: 18 h; Table 4; GAM Medium, pH 7
[6] = system: Fusobacterium varium ATCC 8501 (Fv-1); assay: MIC against anaerobic bacteria; assay type: cell-based; conditions: ATCC8501, 18 h, Table 4, GAM Medium, pH 7
[7] = system: Staphylococcus aureus Smith (Sa-2); assay: MIC, two-fold agar dilution; assay type: cell-based; conditions: 18 h, Table 3, Mueller-Hinton agar, 10^-4 dilution
[8] = system: Escherichia coli (Ec-49), APH(3')-2; assay: MIC, two-fold agar dilution; assay type: cell-based; conditions: 18 h, Table 3, Mueller-Hinton agar, 10^-4 dilution, enzyme APH(3')-2
[9] = system: Staphylococcus aureus (Sa-77), ANT(4'); assay: MIC, two-fold agar dilution; assay type: cell-based; conditions: 18 h
[10] = system: Clostridium perfringens (Cp-1); assay: microbe, parasite or virus in culture; assay type: cell-based; conditions: 18 h, pH 7
Proteus vulgaris (Pv-1) = assay: MIC, two-fold agar dilution; assay type: cell-based; conditions: 18 h, Table 3, Mueller-Hinton agar, 10^-4 dilution
[11] = system: Propionibacterium acnes (Pc-102); assay: MIC against anaerobic bacteria; assay type: cell-based; conditions: Cutibacterium acnes, 18 h; Table 4; GAM Medium, pH 7
Description: (§1) The minimum inhibitory concentrations (MIC) of Bu-2349A and B were determined against a wide variety of bacteria by the two-fold agar dilution method. Mueller-Hinton agar medium was generally used for the determination of bacterial MIC except for species of Streptococcus, Neisseria and Hemophilus for which Gonococcus agar medium (GC agar, Nissui Co., Tokyo) was used. Gifu anaerobe agar medium (GAM agar, Eiken Co., Tokyo) was used for anaerobic bacteria. The MIC's were determined after overnight incubation at 37° C. with an initial inoculum equivalent to a 10^-4 dilution of an 18-hour culture for the aerobic and anaerobic bacteria, except for Streptococcus, Neisseria and Hemophilus for which a 10^-2 dilution was used.

[12] = system: Clostridium chauvoei (Ch-1); assay: MIC against anaerobic bacteria; assay type: cell-based; conditions: 18 h, Table 4, GAM Medium, pH 7
Description: as §1

[13] = system: Bacteroides fragilis (Bf-7); assay: MIC against anaerobic bacteria; assay type: cell-based; conditions: 18 h, Table 4, GAM Medium, pH 7
[14] = system: Bacteroides fragilis (Bf-1); assay: MIC against anaerobic bacteria; assay type: cell-based; conditions: 18 h, Table 4, GAM Medium, pH 7
Mycobacterium 607 (M6-1) = assay: MIC, two-fold agar dilution; assay type: cell-based; conditions: 18 h, Table 3, Mueller-Hinton agar, 10^-4 dilution
solubility = assay type: physicochemical; conditions: hydrochloride salt
[15] = system: Hemophylus influenzae (He-2); assay: MIC, two-fold agar dilution; assay type: cell-based; conditions: 18 h; Table 3; GC agar, 10^-2 dilution
[16] = system: gram-positive and gram-negative bacteria; assay: in vitro antibacterial activity, overall statements; assay type: cell-based
Description: as §1
The influence of inoculum size on MIC was tested on Mueller-Hinton agar using an inoculum of […], 10^-2 or 10^-4 dilution of the overnight culture of test organisms.
The effect of media pH on the MIC's of Bu-2349A was determined at three pH levels (6, 7 and 8) using Mueller-Hinton agar.
The media effect on the MIC's of Bu-2349A was tested using four kinds of assay media: Mueller-Hinton agar (MHA), nutrient agar (NA), heart infusion agar (HIA) and brain heart infusion agar (BHIA). The pH was adjusted at 7 and a 10^-4 dilution of overnight culture was used for the inoculum.

[17] = mouse blood level, paper disc-agar plate assay; assay type: in vivo; conditions: mice, im, 50 mg./kg.
Description: Blood levels were determined in mice following intramuscular administration of Bu-2349A at a dose of 50 mg./kg. Blood samples were collected from orbital sinuses and assayed by the paper disc-agar plate method using B. subtilis PCI 219 as the test organism.

[18] = system: Peptostreptococcus anaerobium B43 (Pb-1); assay: MIC against anaerobic bacteria; assay type: cell-based; conditions: 18 h, Table 4, GAM Medium, pH 7
[19] = system: Escherichia coli (Ec-9), AAC(6')-1; assay: MIC, two-fold agar dilution; assay type: cell-based; conditions: 18 h, Table 3, Mueller-Hinton agar, 10^-4 dilution, enzyme AAC(6')-1

C=C1OC(OC2C(CO)OC(Oc3ccc(C(=O)NCCCNCCCCNCCCCN)cc3)C2O)C(O)C(OC2OC(CO)C(OC3OC(C)C(N)C(O)C3NC(=O)C(C)N)C(O)C2O)C1O (centres unmarked) [Bu-2349A]
MIC [1]: > 100 µg/mL | MIC [2]: > 100 µg/mL | MIC [3]: 1.6 µg/mL (≈ 1.62 µM) | MIC [4]: 3.1 µg/mL (≈ 3.13 µM) | MIC [5]: 50 µg/mL (≈ 50.5 µM) | MIC [6]: > 100 µg/mL | MIC [7]: 3.1 µg/mL (≈ 3.13 µM) | MIC [8]: 1.6 µg/mL (≈ 1.62 µM) | MIC [9]: 12.5 µg/mL (≈ 12.6 µM) | MIC [10]: > 100 µg/mL | MIC (Proteus vulgaris (Pv-1)): 1.6 µg/mL (≈ 1.62 µM) | MIC [11]: 12.5 µg/mL (≈ 12.6 µM) | MIC [12]: > 100 µg/mL | MIC [13]: > 100 µg/mL | MIC [14]: > 100 µg/mL | MIC (Mycobacterium 607 (M6-1)): 3.1 µg/mL (≈ 3.13 µM) | solubility in methanol, ethanol, dimethylsulfoxide and dimethylformamide (solubility; methanol, ethanol, dimethylsulfoxide and dimethylformamide): slightly soluble | solubility in other common organic solvents (solubility; other common organic solvents): practically insoluble | solubility in water (solubility; water): soluble | MIC [15]: > 100 µg/mL | effect of inoculum size on antibiotic activity ([16]; Mueller-Hinton agar, 10^0, 10^-2 or 10^-4 dilution): no significant effect | effect of medium on activity ([16]; NA and HIA compared with MHA or BHIA, pH 7): higher activity in NA and HIA than in MHA or BHIA | inhibitory activity both in vitro and in vivo ([16]; gram-positive and gram-negative bacteria, including aminoglycoside-resistant bacteria, summary statement): marked inhibitory activity | antibacterial activity ([16]; including bacteria which produce aminoglycoside-modifying enzymes): active | effect of pH 6 on activity ([16]; pH 6 compared with pH 7): much reduced activity | effect of pH 8 on activity ([16]; pH 8 compared with pH 7): approximately twice as active | antibiotic activity in blood after 2 hours ([17]; after 2 hours): No antibiotic activity was detected | elimination from the blood stream ([17]; after the peak): rapid elimination from the blood stream | concentration at 0.25 h ([17]; mouse, blood, 15 minutes): 15000 ng/mL | concentration at 0.5 h ([17]; mouse, blood, 30 minutes): 12000 ng/mL | concentration at 1 h ([17]; mouse, blood, 60 minutes): 2800 ng/mL | concentration at 2 h ([17]; mouse, blood, 120 minutes): > 1000 ng/mL | Tmax ([17]; mouse, blood, read-out: time of peak blood level (converted)): 15 min | MIC [18]: > 100 µg/mL | MIC [19]: 0.8 µg/mL (≈ 0.808 µM)
